This is an account of results in patent US20230263773A1, “COMBINATION THERAPY WITH DEOXYURIDINE TRIPHOSPHATASE INHIBITORS” (CV6 Therapeutics (NI) Limited, priority 2020, published 2023).

In one assay the test system is calreticulin. The assay can be described thus: Cell surface calreticulin by flow cytometry. The assay is classed as cell-based. Particulars: 6.25 μM Compound A, 1 μM FUdR, 500 nmol/L doxorubicin; 4 hours. From the text:
Experimental Overview. Tumor cells undergoing immunogenic cell death (ICD) emit damage associated molecular patterns (DAMPs). ICD is a sub-class of cell death that results in the potent stimulation of the innate immune system and subsequently the stimulation of adaptive immune responses. The cell surface expression of calreticulin during cell death is one of several established DAMPs characteristic of immunogenic cell death. Calreticulin translocates from the endoplasmic reticulin to the cell membrane where it functions as a potent “eat me” signal for macrophages and dictates tumor antigen transfer and therefore the immunogenicity of cancer cell death. PANC1 pancreatic carcinoma cells were treated with vehicle control (DMSO), 6.25 μM Compound A, 1 μM FUdR, or the combination of 6.25 μM Compound A and 1 μM FUdR for 4 hours and the concentration of cell surface calreticulin was deteremined by flow cytometry.
Cell Line Model Selection and Preparation. The PANC1 pancreatic cancer cell line was purchased from ATCC. Cells were cultured and expanded in humidified incubators at 5% CO2 until sufficient cells were available.
Drug Preparation and Treatments. All drugs/compounds were prepared freshly in cell culture media from 50 mM frozen stocks prior to treatment. Cells were seeded in 6-well plates and permitted to adhere overnight. Media was removed and replaced with media containing 6.25 μM Compound A, 1 μM FUdR or a combination of 6.25 μM Compound A and 1 μM FUdR. […]
Detection of Cell Surface Calreticulin. Cell surface calreticulin was quantified by flow cytometry. […] Cells were counted and 300,000 cells were washed in staining buffer and incubated in Calreticulin (D3E6) XP Alexa Fluor 488 Conjugate antibody (Cell Signaling) or IgG antibody (negative control antibody) on ice for 40 minutes. […] The IgG isotype control stained sample was used to correctly identify the positively stained population in which median fluorescence intensity was determined. Median fluorescence intensity values were exported and analyzed in Microsoft Excel and GraphPad Prism 6. […]

The subject of the next assay is HMGB1. The assay can be described thus: Extracellular release of HMGB1 into cell culture media by ELISA. The assay is classed as cell-based. The following applies: 12.5 μM Compound A, 1 μM FUdR; 24 hours. From the text:
Experimental Overview. High mobility group box 1 (HMGB1) is a nuclear non-histone chromatin-binding protein. The release of HMGB1 by immune cells or severely damaged cancer cells functions as an immunostimulatory chemokine and is a well-known damage-associated molecular pattern (DAMP). The release of HMGB1 during cell death is characteristic of immunogenic cell death, a sub-class of cell death that results in the potent stimulation of the innate and subsequently the stimulation of adaptive immune responses. HMGB1 functions as a pro-inflammatory cytokine-like factor and can form hetero-complexes with other immune regulators. HMGB1 binds to TLRs, RAGE and CXCR4 on immune cells stimulating chemotaxis and the secretion of pro-inflammatory factors. HCT116 colon carcinoma and JU77 mesothelioma cells were treated with vehicle control (DMSO), 12.5 μM Compound A, 1 μM FUdR, or the combination of 12.5 μM Compound A and 1 μM FUdR for 24 hours and the release of HMGB1 into the extracellular culture media was measured by ELISA.
Cell Line Model Selection and Preparation. The HCT116 cancer cell line was purchased from ATCC. JU77 cell line was a kind gift from Dr Dan Longley, QUB. Cells were cultured and expanded in humidified incubators at 5% CO2 until sufficient cells were available.
Drug Preparation and Treatments. All drugs/compounds were prepared freshly in cell culture media from 50 mM frozen stocks prior to treatment. Cells were seeded in 6-well culture dishes and allowed to adhere overnight before treatment with Compound A, FUdR, or Compound A in combination with FUdR. Additional wells were treated with doxorubicin to act as a positive inducer of HMGB1. Twenty-four hours after treatment, the media was aspirated and centrifuged (2500 rpm, 5 min, at 4° C.) to remove any cellular debris. The supernatant was collected for immediate processing or stored at −80° C. for later assay.
Detection of HMGB1 Release. HMGB1 was quantified using the HMGB1 ELISA kit (ST51011, IBL International). Enzyme conjugate (HMGB1 conjugated to peroxidase) and standard were reconstituted in 12 ml enzyme conjugate diluent, and 1 ml diluent buffer respectively and aliquots frozen at −80° C. until required. All reagents and samples were brought to room temperature immediately prior to use. A standard curve was prepared for the high sensitive detection range (0.313-10 ng/ml). 50 μl diluent buffer was pipetted into each well of the microtiter plate. 50 μl of standard, sample, positive control or negative control (diluent buffer) was pipetted, in duplicate, into respective wells as determined by the plate set up. The plate was covered with adhesive foil and incubated at 37° C. for 20 to 24 hours on an orbital shaker (450 rpm). Following the incubation period the incubation solution was discarded and the plate washed (5×300 μl per well). Excess wash buffer was removed by inversion on to a paper towel. 100 μl enzyme conjugate was added to each well, the plate covered with adhesive foil and incubated at 25° C. for 2 hours on an orbital shaker (450 rpm). Following the incubation the solution was discarded and the plate washed as before. Fresh color solution was prepared immediately prior to use and 100 μl added to each well using a multichannel pipette. The plate was then incubated for 30 minutes at room temperature. The color reaction was stopped by pipetting 100 μl of stop reagent to each well using a multichannel pipette. The plate was shaken gently to mix and the backs of the wells were cleaned using a lint-free tissue. The concentration of HMGB1 was determined on a CLARIOstar microplate reader by measuring the absorbance at 450 nm using a reference reading at 640 nm. Data was exported to Microsoft Excel for processing and statistical analysis consisting of one-way ANOVA with Tukey's Multiple Comparisons Test was performed in GraphPad Prism 6.

As for `COc1cccc2c1C(=O)c1c(O)c3c(c(O)c1C2=O)C[C@@](O)(C(=O)CO)C[C@@H]3O[C@H]1C[C@H](N)[C@H](O)[C@H](C)O1` [doxorubicin], in the assay on calreticulin, the “increase in cell surface expression of calreticulin compared to control, PANC1 cells” value worked out at 450%. Besides, in the assay on HMGB1, the “increase in concentration of HMGB1 in cell culture media compared to control, HCT116 cells” value was found to be 213% and the “increase in concentration of HMGB1 in cell culture media compared to control, JU77 cells” value is given as “failed to elicit any significant increase”.
